Source: article PMC10482691, “LTP induction by structural rather than enzymatic functions of CaMKII” (Nature, 2023)
“And” between values parts separate entries of the source, which are not always exact repeats. Equal values may be shown once. Read-outs that look alike come from different tables or passages of the source.

How the values were obtained:
[1] = tested on: purified CaMKIIα; assay: Km of CaMKII for ATP (GST-GluA1 S831 phosphorylation with increasing ATP); type: biochemical
[2] = tested on: purified CaMKIIα; design: method as in PMID 29294328, PMID 8385100, PMID 19857459, PMID 14558884; details: read-out: previously published Km values for ATP; cited from earlier work
[3] = tested on: purified CaMKIIα; assay: Km of CaMKII for ATP (GST-GluA1 S831 phosphorylation with increasing ATP); type: biochemical; details: 30 °C, 4 independent experiments, read-out: CaMKII Michaelis-Menten constant (Km) for ATP
Method: CaMKII-mediated phosphorylation of GluA1 S831 or GluN2B S1303 was measured by in vitro kinase reaction with a purified GST–GluA1 C-terminal tail or GST-GluN2B C-terminal tail. Reactions contained 40 nM CaMKII, 1 μM GST–GluA1, 50 mM PIPES, pH 7.1, 2 mM CaCl2, 10 mM MgCl2, 1 μM calmodulin, 1–4 mM ATP and 1 μM okadaic acid. Negative controls were prepared without ATP. Reactions were done at 30 °C for 20 s; reactions were stopped by adding SDS loading buffer and incubation in a boiling water bath for 5 min. GST, phospho-S831, CaMKII, phospho-T286 or phospho-S1303 were detected in the samples by immunoblot analysis. […]
Data are presented as mean values +/− SEM. a, Comparison of AS105 vs AS283 structure. b, Representative Immunoblots and quantification of in vitro kinase reactions at 30 °C with increasing ATP concentration measuring purified CaMKIIα phosphorylation of GST-GluA1 S831. […] Correlation indices before and after ionomycin-induced colocalization of GFP-CaMKII and mCherry-2BC under vehicle or 10 μM AS105 conditions (n = 23,18 cells; ***p < 0.001, RM two-way ANOVA with Šídák’s multiple comparisons test). Scale bar indicates 10 μm. […] CaMKII synaptic enrichment was measured before and after cLTP (n = 11,10 cells; *p < 0.05; RM two-way ANOVA with Šídák’s multiple comparisons test). […]

[4] = target: purified CaMKIIα binding to GST–GluN2B-c WT (Homo sapiens, UniProt Q9UQM7); assay: CaMKII binding to immobilized GST–GluN2B-c in vitro; details: Ca2+/CaM, 1 mM ATP; GST–GluN2B-c WT
Method: CaMKII–GluN2B binding assays were done as described[9],[13],[25]. Briefly, GST–GluN2B-c tail (GST–2BC) was immobilized on anti-GST antibody-coated microtiter plates (Thermo Scientific), blocked for 30 min with 5% BSA and then overlaid with […] CaMKII (subunit concentration) in PIPES-buffered saline (pH 7.2) containing 2 mM Ca^2+, 1 μM CaM, 1 mM Mg^2+, 0.1% BSA and 0.1% Tween-20 for 20 min at room temperature. […] After extensive washes in buffer containing 1 mM EGTA, GST–2BC and bound CaMKII were eluted for 10 min in SDS loading buffer at 95 °C. Bound CaMKII was measured via immunoblot.

[5] = tested on: CA3–CA1 Schaffer collateral pathway LTP; design: method as in PMID 2549638; details: previous studies; cited from earlier work

| SMILES | CaMKIIα phosphorylation of GST-GluA1 S831 (relative) ([1]; 1.5625 uM ATP) | CaMKIIα phosphorylation of GST-GluA1 S831 (relative) ([1]; 25 uM ATP) | CaMKIIα phosphorylation of GST-GluA1 S831 (relative) ([1]; 100 uM ATP) | CaMKIIα phosphorylation of GST-GluA1 S831 (relative) ([1]; 200 uM ATP) | CaMKIIα phosphorylation of GST-GluA1 S831 (relative) ([1]; 400 uM ATP) | Km [2] [µM] | Km [3] [µM] | bound CaMKIIα (immunoblot, relative) [4] | effect on LTP [5] |
| --- | --- | --- | --- | --- | --- | --- | --- | --- | --- |
| Nc1ncnc2c1ncn2[C@@H]1O[C@H](COP(=O)(O)OP(=O)(O)OP(=O)(O)O)[C@@H](O)[C@H]1O [ATP] | 0 | 0.594 and 0.4443 and 0.666 and 0.3478 | 0.9012 and 0.7992 and 1.006 and 0.6032 | 1.078 and 0.8135 and 1.004 and 0.7632 | 1.127 and 0.9367 (2×) | 8 to 127 | 33.3 | 4.397 and 5.355 and 6.655 and 4.688 |  |
| CC1CNCCN1S(=O)(=O)c1cccc2cnccc12 (stereo not drawn) [H7] |  |  |  |  |  |  |  |  | LTP inhibition |
